Assay results published in patent US20200061084A1, “USE OF 2AMD AND 2MD TO TREAT FIBROSIS” (WISCONSIN ALUMNI RESEARCH FOUNDATION, priority 2016, published 2020).

Key:
[1] = test system: CsA-induced nephrotoxicity; assay: CsA-induced nephrotoxicity in rats, 28 days: weight, serum BUN and creatinine, urinary protein/creatinine ratio, H&E and picrosirius red histology; type: in vivo, Sprague-Dawley male rats; conditions: for Dose sufficient to prevent nephrotoxicity and/or fibrosis without dramatically increasing serum calcium levels: Sprague-Dawley rats; for Picrosirius staining (collagens): kidney sections, birefringence quantified; for Picrosirius staining (collagens) / Serum creatinine / BUN / Urinary protein/creatinine ratio: rats; for Picrosirius staining (collagens) / weight / Serum creatinine / BUN / Urinary protein/creatinine ratio: CsA 20 mg/kg/day, analog 5 ng/kg, daily 28 days; for weight: rats at harvest; for BUN: serum; for Urinary protein/creatinine ratio: spot urine at harvest
Method: Rats were randomly assigned to groups of 6 each. Each animal received daily injections under 2% isofluorane. […] Vitamin D analogs were dissolved in polyethylene glycol, 0.5% ethanol (PEG). […] All rats were provided with food and water ad-libitum as per standard procedure. Animals were dosed daily for 28 days with the last dose given approximately 24 h prior to harvest (except for 5 animals receiving 1,25(OH)2D3 which were dosed 48 h prior to harvest). Animals were placed under anesthesia, urine and blood (aorta) were collected and kidneys removed; rats were euthanized by pneumothorax puncture. Kidneys were sectioned longitudinally with one half placed into 10% formalin and the other half snap frozen into liquid nitrogen. Blood was allowed to clot for about 1 h followed by spinning and removing of serum. Tissues in formalin were embedded in paraffin and sectioned for further study. Serum, urine and frozen kidney tissues were stored at -80° C. […] Serum was analyzed for BUN, creatinine and calcium levels. The BUN and creatinine measurements were performed using IDEXX cartridges measured on a […] Chemistry Analyzer. […] Urine testing to determine protein/creatinine ratio was performed using IDEXX cartridges; protein levels were also measured using BCA protein determination. Kidneys fixed in formalin were embedded in paraffin, sectioned and stained with Hematoxilin/eosin and with pricrosirius red, which stains mostly collagens I and III. Stained sections were imaged on an upright brightfield Nikon microscope with polarizer capabilities to assess the birefringence of the picrosirius-stained collagen fibers. Quantization of staining was carried out using Image J from 5 images obtained at random within the central cortical area and excluding blood vessels. For H&E, the eosin staining (pink) prevalent in native tissue was quantified Data was analyzed using Graphpad Prism software with the standard student t-test or One-way Anova operations.

[2] = test system: unilateral ureteral obstruction (UUO) model; assay: Unilateral ureteral obstruction (UUO) model, picrosirius staining of collagen in kidney sections; type: in vivo, Male Sprague-Dawley rats
Text: The unilateral ureteral obstruction (UUO) model is a surgical model representing a rodent equivalent of acute kidney injury. Obstruction results in marked dilatation of the ureter together with reduced renal blood flow and glomerular filtration.
Male Sprague-Dawley rats weighing approximately 200-350 g were acclimated and fed ad libitum a standard diet (Teklad 8604 or 2018, Harlan, Madison Wis.). Briefly, under 2% isoflurane anesthesia, the left kidney and ureter were exposed through a midline or a flank incision. The ureter was ligated using 5-0 or 6-0 braided silk suture material. The ligated ureter and kidney were returned to the abdominal cavity and the incision was closed in two layers with interrupted sutures and VETBOND tissue adhesive or staples. The right or contralateral kidney was used as a control. Sham operated animals were treated as the UUO animals except their ureter was not ligated (not shown).
Animals were given buprenorphine (0.05 mg/kg) prior to returning them to their cages where they were kept on standard water and chow until sacrifice at the designated times. Animals were euthanized under CO2, following a midline incision blood was collected via cardiac puncture and the kidneys were removed. The midsection of each kidney was placed in 10% formalin for paraffin embedding and histological staining. […]

[3] = Serum calcium levels of rats dosed with CsA and vitamin D analogs (atomic absorption spectroscopy); type: in vivo, Sprague-Dawley male rats
Method: Rats were randomly assigned to groups of 6 each. Each animal received daily injections under 2% isofluorane. […] Vitamin D analogs were dissolved in polyethylene glycol, 0.5% ethanol (PEG). […] All rats were provided with food and water ad-libitum as per standard procedure. Animals were dosed daily for 28 days with the last dose given approximately 24 h prior to harvest (except for 5 animals receiving 1,25(OH)2D3 which were dosed 48 h prior to harvest). Animals were placed under anesthesia, urine and blood (aorta) were collected and kidneys removed; rats were euthanized by pneumothorax puncture. Kidneys were sectioned longitudinally with one half placed into 10% formalin and the other half snap frozen into liquid nitrogen. Blood was allowed to clot for about 1 h followed by spinning and removing of serum. Tissues in formalin were embedded in paraffin and sectioned for further study. Serum, urine and frozen kidney tissues were stored at −80° C.
Serum was analyzed for BUN, creatinine and calcium levels. The BUN and creatinine measurements were performed using IDEXX cartridges measured on a VETTEST Chemistry Analyzer.

Molecule	Dose sufficient to prevent nephrotoxicity and/or fibrosis without dramatically increasing serum calcium levels [1]	Decrease of BUN compared to the CsA-treated group ([1]; analog at 5 ng/kg)	Mean UPC lower than the mean UPC for the CsA group ([1]; analog at 5 ng/kg)	Picrosirius staining (collagens) [1]	weight [1]	Serum creatinine [1]	BUN [1]	Urinary protein/creatinine ratio [1]	further results
2α-methyl-19-nor-(20S)-1α,25-dihydroxyvitamin D3 [2AMD]	5 ng/kg per day	about 30%	about 74%	1.8	333.8 g	0.36 mg/dL	28 mg/dL	0.2	Collagen content ([1]; 2.5 ng/kg): reduction in collagen content; Decrease of BUN compared to the CsA-treated group ([1]; 2AMD at 10 ng/kg): about 30%; Serum creatinine, normal (below 0.6 mg/dL) or not ([1]; 2AMD at 20 ng/kg): normal in most of the treatment groups except for 2AMD at 20 ng/kg; Eosinophilic tissue (eosin in H&E-stained kidney) compared to the CsA treated group ([1]; CsA + 2AMD 2.5 ng/kg): promoted an increase in eosinophilic tissue; Eosinophilic tissue (eosin in H&E-stained kidney) compared to the CsA treated group ([1]; CsA + 2AMD 5 ng/kg): promoted an increase in eosinophilic tissue; Decrease of the CsA-promoted increase in collagen birefringence (picrosirius red) ([1]; CsA + 2AMD 5 ng/kg, 28 days): about 30%; Drop in weight from the rats' original weights ([1]; CsA + 2AMD 5 ng/kg, day of harvest): 5 g; Fibrosis ([1]; all doses of 2AMD (2.5, 5, 10, 20 ng/kg)): effective at reducing fibrosis; Dose optimal in nephroprotection ([1]; various doses of 2AMD tested): 5 ng/kg rat body weight; Decrease in collagen content (picrosirius staining) ([2]; 2AMD 5 ng/kg oral daily for 14 days starting on the day of UUO): 3 fold; Decrease in collagen content (picrosirius staining) ([2]; 2AMD 5 ng/kg oral daily, from 7 days prior to UUO to 7 days after UUO (-7+7)): 3 fold; Relationship of serum calcium levels with dose ([3]; rat, in vivo): linear relationship with dose
C=C1/C(=C\C=C2/CCC[C@]3(C)[C@@H]([C@H](C)CCCC(C)(C)O)CC[C@@H]23)C[C@@H](O)C[C@@H]1O [1,25(OH)2 D3, 1,25(OH)2D3]									Serum calcium level increase with respect to rats with vehicles or CsA+PEG ([3]; CsA + 1,25(OH)2D3 100 ng/kg, 28 days): about 25%
C=C1[C@H](O)CC(=C/C=C2\CCCC3(C)C2CCC3[C@@H](C)CCCC(C)(C)O)C[C@H]1O (stereo partly drawn) [2MD, 2-methylene-19-nor-(20S)-1α,25-dihydroxyvitamin D3]	5 ng/kg per day	about 30%	about 74%	1.7	317.3 g	0.33 mg/dL	27 mg/dL	0.4	
cyclosporine [CsA + PEG]									Serum Ca ([3]; rats, CsA 20 mg/kg/day, analog 5 ng/kg, daily injection 28 days, blood about 24 h after last dose): 8.7 mg/dL
